# Source: publication PMC10248798, “Arabidopsis nicotianamine synthases comprise a common core-NAS domain fused to a variable autoinhibitory C terminus” (The Journal of Biological Chemistry, 2023)
# Experiments:
# Assay type in all cases: biochemical
# AdeD = molecular target: T1, AdeD (Escherichia coli, UniProt P31441); assay: TLC; details: 3 mM adenine, 50 mM Tris/HCl pH 8.7, 30 °C
# T1 construct: gene ade; full length, C-terminal His6 tag (pET-21b), Ni-NTA purified from E. coli
# MtnN = molecular target: T2, MtnN (Escherichia coli, UniProt P0AF12); assay: TLC; details: 2.5 mM MTA, 50 mM Tris/HCl pH 8.7, 30 °C
# T2 construct: full length, C-terminal His6 tag (pET-21b), Ni-NTA purified from E. coli
# T2 sequence (P0AF12 whole entry): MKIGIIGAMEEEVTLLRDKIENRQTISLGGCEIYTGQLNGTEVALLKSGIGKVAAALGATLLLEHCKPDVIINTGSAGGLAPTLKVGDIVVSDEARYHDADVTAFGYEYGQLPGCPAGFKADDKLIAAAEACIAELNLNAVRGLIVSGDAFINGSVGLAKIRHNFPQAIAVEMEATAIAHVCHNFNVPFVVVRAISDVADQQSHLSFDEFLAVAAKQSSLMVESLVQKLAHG
# MetK = molecular target: T3, MetK (Escherichia coli, UniProt P0A817); assay: one-pot coupled synthesis of nicotianamine with MtnN and AtNAS1; details: coupled to AtNAS1 and MtnN
# T3 construct: full length, C-terminal His6 tag (pET-21b), Ni-NTA purified from E. coli
# T3 sequence (P0A817 2-384): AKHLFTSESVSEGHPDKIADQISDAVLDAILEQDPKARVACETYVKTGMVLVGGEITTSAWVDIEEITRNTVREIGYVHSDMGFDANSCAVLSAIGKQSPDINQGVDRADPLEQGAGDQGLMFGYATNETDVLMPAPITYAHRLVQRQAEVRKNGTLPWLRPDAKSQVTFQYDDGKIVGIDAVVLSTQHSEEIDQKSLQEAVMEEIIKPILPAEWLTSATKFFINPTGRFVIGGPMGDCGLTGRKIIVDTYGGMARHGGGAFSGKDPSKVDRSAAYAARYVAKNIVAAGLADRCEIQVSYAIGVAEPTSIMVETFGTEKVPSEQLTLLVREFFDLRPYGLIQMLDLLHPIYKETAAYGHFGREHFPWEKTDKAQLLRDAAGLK
# AtNAS3 ΔC42 = molecular target: T4, AtNAS3 ΔC42 (Arabidopsis thaliana, UniProt O80483); assay: coupled spectrophotometric assay (MtnN/AdeD, A265); details: 0.125 mM SAM, 50 mM Tris-HCl pH 8.7, 37 °C
# T4 construct: gene NAS3; core-NAS domain, 42 C-terminal residues removed, C-terminal His6 tag (pET-21b, NheI/NotI), E. coli
# T4 sequence (O80483 1-278): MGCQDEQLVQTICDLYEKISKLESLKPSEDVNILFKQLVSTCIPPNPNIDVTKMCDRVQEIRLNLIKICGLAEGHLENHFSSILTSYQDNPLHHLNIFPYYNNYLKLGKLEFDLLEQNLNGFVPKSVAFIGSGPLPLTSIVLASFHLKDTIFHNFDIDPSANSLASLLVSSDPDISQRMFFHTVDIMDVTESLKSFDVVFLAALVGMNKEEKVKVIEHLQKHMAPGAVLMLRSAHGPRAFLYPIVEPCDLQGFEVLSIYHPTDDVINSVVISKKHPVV
# AtNAS4 ΔC47 = molecular target: T5, AtNAS4 ΔC47 (Arabidopsis thaliana, UniProt Q9C7X5); assay: coupled spectrophotometric assay (MtnN/AdeD, A265); details: 0.125 mM SAM, 50 mM Tris-HCl pH 8.7, 37 °C
# T5 construct: gene NAS4; core-NAS domain, 47 C-terminal residues removed, C-terminal His6 tag (pET-21b), E. coli
# T5 sequence (Q9C7X5 1-277): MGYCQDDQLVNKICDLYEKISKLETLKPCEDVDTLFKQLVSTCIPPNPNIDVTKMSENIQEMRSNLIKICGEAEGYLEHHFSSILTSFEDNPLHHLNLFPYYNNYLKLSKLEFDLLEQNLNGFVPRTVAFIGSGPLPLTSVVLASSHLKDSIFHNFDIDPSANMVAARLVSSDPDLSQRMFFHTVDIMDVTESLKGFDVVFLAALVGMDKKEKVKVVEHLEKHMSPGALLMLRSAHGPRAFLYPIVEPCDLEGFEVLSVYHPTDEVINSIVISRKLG
# T1 sequence (P31441 whole entry): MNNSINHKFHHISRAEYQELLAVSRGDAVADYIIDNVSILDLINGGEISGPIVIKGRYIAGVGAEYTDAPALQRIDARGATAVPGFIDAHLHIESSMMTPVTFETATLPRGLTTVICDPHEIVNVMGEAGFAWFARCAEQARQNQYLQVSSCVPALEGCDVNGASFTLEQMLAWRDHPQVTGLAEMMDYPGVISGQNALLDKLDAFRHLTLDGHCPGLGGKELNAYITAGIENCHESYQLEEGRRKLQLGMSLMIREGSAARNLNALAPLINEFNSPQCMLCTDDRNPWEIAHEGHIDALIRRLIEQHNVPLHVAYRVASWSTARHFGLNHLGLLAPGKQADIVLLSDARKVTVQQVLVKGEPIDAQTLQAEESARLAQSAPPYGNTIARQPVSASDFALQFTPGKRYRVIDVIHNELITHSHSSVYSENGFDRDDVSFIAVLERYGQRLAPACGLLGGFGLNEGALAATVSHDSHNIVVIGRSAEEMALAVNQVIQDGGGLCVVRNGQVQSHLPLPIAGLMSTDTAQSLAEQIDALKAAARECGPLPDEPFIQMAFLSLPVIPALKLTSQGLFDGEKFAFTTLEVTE
structure (smiles),measurement,setting,value
Nc1ncnc2[nH]cnc12 [adenine],TLC,AdeD,"MtnN- and AdeD, were active in NAS reaction buffer when assayed individually with their respective substrates"
CSC[C@H]1O[C@@H](n2cnc3c(N)ncnc32)[C@H](O)[C@@H]1O [MTA],TLC,MtnN,"MtnN- and AdeD, were active in NAS reaction buffer when assayed individually with their respective substrates"
CSCC[C@H](N)C(=O)O [L-methionine],one-pot coupled synthesis of nicotianamine with MtnN and AtNAS1,MetK; co-substrate ATP,we combined MetK with MtnN and AtNAS1 for the one-pot synthesis of NA from ATP
C[S+](CC[C@H](N)C(=O)O)C[C@H]1O[C@@H](n2cnc3c(N)ncnc32)[C@H](O)[C@@H]1O (stereo partly drawn) [SAM],"coupled spectrophotometric assay (MtnN/AdeD, A265)",AtNAS3 ΔC42,The truncated variants of AtNAS3 and AtNAS4 also showed strongly increased activities
same,"coupled spectrophotometric assay (MtnN/AdeD, A265)",AtNAS4 ΔC47,The truncated variants of AtNAS3 and AtNAS4 also showed strongly increased activities
Nc1ncnc2c1ncn2[C@@H]1O[C@H](COP(=O)(O)OP(=O)(O)OP(=O)(O)O)[C@@H](O)[C@H]1O [ATP],one-pot coupled synthesis of nicotianamine with MtnN and AtNAS1,MetK; co-substrate L-methionine,we combined MetK with MtnN and AtNAS1 for the one-pot synthesis of NA from ATP
